Results reported in article PMC10714930, “In silico virtual screening for the identification of novel inhibitors against dihydrodipicolinate reductase (DapB) of Mycobacterium tuberculosis, a key enzyme of diaminopimelate pathway” (Microbiology Spectrum, 2023).
≈ marks a conversion by molar mass, not a printed value.

Assays:
[1] = molecular target: DapA and DapB (purified enzymes) (Mycobacterium tuberculosis, UniProt P9WP25); format: biochemical; conditions: coupled enzyme assay, Michaelis-Menten plot
DapA and DapB (purified enzymes), sequence (P9WP25 whole entry, looked up): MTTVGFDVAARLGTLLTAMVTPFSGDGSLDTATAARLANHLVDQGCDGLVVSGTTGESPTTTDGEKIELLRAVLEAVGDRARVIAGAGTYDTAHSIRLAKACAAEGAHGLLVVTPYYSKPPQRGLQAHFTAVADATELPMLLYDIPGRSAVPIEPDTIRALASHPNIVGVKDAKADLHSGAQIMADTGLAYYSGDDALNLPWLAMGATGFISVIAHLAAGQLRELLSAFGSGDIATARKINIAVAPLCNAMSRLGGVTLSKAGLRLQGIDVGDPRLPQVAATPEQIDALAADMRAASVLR

[2] = molecular target: M. tb DapB (Mycobacterium tuberculosis, UniProt P9WP23); assay: Dihydrodipicolinate reductase (DapB)-coupled enzymatic assay; format: biochemical
M. tb DapB, sequence (P9WP23 whole entry, looked up): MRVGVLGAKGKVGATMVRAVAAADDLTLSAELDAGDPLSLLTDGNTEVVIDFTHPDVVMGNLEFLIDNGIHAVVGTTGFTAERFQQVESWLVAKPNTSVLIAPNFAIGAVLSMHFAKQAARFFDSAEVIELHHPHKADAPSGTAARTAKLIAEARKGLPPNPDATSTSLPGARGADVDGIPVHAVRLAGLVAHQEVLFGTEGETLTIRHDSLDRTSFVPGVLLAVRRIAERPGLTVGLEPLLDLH
Experimental: The enzymatic assay of DapB is a coupled assay which requires the upstream enzyme DapA. The formation of tetrahydrodipicolinate by DapB was measured by monitoring conversion of NADPH to NADP^+ spectrophotometrically at 340 nm. The substrate of DapB, i.e., 2,4-dihydrodipicolinic acid, was prepared enzymatically through condensation of Aspartate Semialdehyde [(S)-ASA] and sodium pyruvate by DapA. The standard assay was performed in 50 mM sodium phosphate buffer (pH 7.5) consisting of 400 µM (S)-ASA, 160 µM NADPH, 500 µM sodium pyruvate, 3 µg DapB, and 5 µg DapA in a total reaction volume of 100 µL. […] The decrease in the absorbance of NADPH corresponding to the consumption of substrate was monitored at 340 nm after incubation for 10 minutes at room temperature. […] The activity of DapB in the presence of compounds was measured similarly; however, the enzyme was pre-incubated with the compounds for 10 minutes at 37°C. The percent activity for the samples in the presence of inhibitors was calculated by using a two-step method. Firstly, the absorbance values at 340 nm for each test sample (with or without the inhibitor) were normalized with the negative control (no substrate control). Subsequently, the percent activity was calculated by using the formula (normalized A340nm of inhibitor sample/normalized A340nm of no inhibitor sample) × 100. […]

[3] = system: M. tb H37Rv; assay: M. tb whole cell growth inhibition by resazurin microtiter assay; format: cell-based, Mycobacterium tuberculosis
[4] = system: M. tb H37Rv; assay: Checkerboard assay of B59 with B20; format: cell-based, Mycobacterium tuberculosis
[5] = system: M. tb H37Rv inside THP-1 macrophages; assay: Intracellular inhibition assay in THP-1 macrophages; format: cell-based; conditions: Mycobacterium tuberculosis, 120 h, CFU enumeration after 5 days of infection
[6] = system: mycobacterial DapB; parameters: method as in PMID 12962488; conditions: cited from earlier work

**Q.** For `N[C@@H](CC=O)C(=O)O` [ASA, L-aspartate-β-semialdehyde], which Km [1] is on record?
**A.** 345 µM

**Q.** Which results are given for `COC(=O)CCCc1nc2ccccc2nc1N=Nc1ccccc1` [Compound B59, 4-(3-Phenylazoquinoxalin-2-yl) butanoic acid methyl ester]?
**A.** IC50 ([2]; IC50 exhibited by compounds in biochemical assay, DapB enzymatic activity, compounds 10-100 µg/mL): 32.9 µM; inhibition at 100 µg/mL ([2]; at 100 µg/mL, read-out: inhibition of DapB enzyme activity): > 80%; MIC99 exhibited by compounds against M. tb growth ([3]; M. tb H37Rv, 7 days, resazurin and drop plating): 20 µg/mL (≈ 59.8 µM); MIC99 ([3]; Mycobacterium tuberculosis, 168 h, M. tb H37Rv, 7 days, resazurin and drop plating, read-out: MIC99 exhibited by compounds against M. tb growth): 20 µg/mL (≈ 59.8 µM); effect on bacterial growth by CFU enumeration ([3]; at 0.5X MIC99 and 0.25X MIC99): inhibition of the bacterial growth; fractional inhibitory concentration (FIC) ([4]; MIC99 in combination / MIC99 alone): 0.062; MIC99 of B59 in combination ([4]; in the presence of 20 µg/mL of compound B20): 1.25 µg/mL; MIC90 [5]: 73 µg/mL (≈ 218 µM)

**Q.** With `NC(=O)C1=CN([C@@H]2O[C@H](COP(=O)(O)OP(=O)(O)OC[C@H]3O[C@@H](n4cnc5c(N)ncnc54)[C@H](O)[C@@H]3O)[C@@H](O)[C@H]2O)C=CC1` [NADH] as the molecule, how does the Km [6] read?
**A.** 3.2 ± 0.4 µM

**Q.** Which Km [6] does the source give for `NC(=O)C1=CN([C@@H]2O[C@H](COP(=O)(O)OP(=O)(O)OC[C@H]3O[C@@H](n4cnc5c(N)ncnc54)[C@H](OP(=O)(O)O)[C@@H]3O)[C@@H](O)[C@H]2O)C=CC1` [NADPH] here?
**A.** 11.8 ± 1.5 µM

**Q.** Which Km [1] does the source give for `CC(=O)C(=O)O` [sodium pyruvate] here?
**A.** 125 µM
